Source: patent US8883841B2, “Oncogenic ras-specific cytotoxic compound and methods of use thereof” (The Board of Regents of the University of Texas System, priority 2005, dated 2014)
Like-named read-outs stand apart in the source and are kept apart here.

Key:
H226B cells = test: Cell viability, H226B lung cancer cells; format: cell-based, human; details: for IC50: Homo sapiens
A549 cells = test: Cell viability, A549 lung cancer cells; format: cell-based, human; details: for IC50: Homo sapiens, A549, read-out: IC50 (−LogM), A549, Lung (converted)
A549CK8 = test: Cell viability, A549CK8 lung cancer cells; format: cell-based, human; details: for IC50: Homo sapiens, read-out: IC50 (−LogM) (converted)
Hct116 = test: Cell viability, Hct116 colon cancer cells; format: cell-based, human; details: for IC50: Homo sapiens
CT116P53 = test: Cell viability, CT116P53 colon cancer cells; format: cell-based, human; details: for IC50: Homo sapiens, read-out: IC50 (−LogM) (converted)
HKE3 = test: Cell viability, HKE3 colon cancer cells; format: cell-based, human; details: for IC50: Homo sapiens
H322 cells = test: Cell viability, H322 lung cancer cells; format: cell-based, human; details: for IC50: Homo sapiens
H1299 cells = test: Cell viability, H1299 lung cancer cells; format: cell-based, human; details: for IC50: Homo sapiens, NCI-H1299, read-out: IC50 (−LogM), h1299, Lung (converted)
AsPC-1 = test: Cell viability, AsPC-1 pancreatic cancer cells; format: cell-based, human; details: for IC50: Homo sapiens
DLD1 = test: Cell viability, DLD1 colon cancer cells; format: cell-based, human; details: for IC50: Homo sapiens
Heb46 = test: Cell viability, Heb46 kidney cells; format: cell-based
Heb44 = test: Cell viability, Heb44 kidney cells; format: cell-based
Capanc-1 = test: Cell viability, Capanc-1 pancreatic cancer cells; format: cell-based, human; details: for IC50: Homo sapiens, Pancreatic cancer cell
miapac = test: Cell viability, miapac pancreatic cancer cells; format: cell-based, human; details: for IC50: Homo sapiens, Pancreatic cancer cell, read-out: IC50 (−LogM) (converted)
T29Kt1 cells [1] = test: cells; details: Homo sapiens, T29Kt1, read-out: IC50 in T29k cells, Table 1
H460 cells [2] = test: cells; details: Homo sapiens
T29 cells = details: Table 1; value is the negative log10 of mol/L
T29Kt1 cells [3] = details: Table 1, value is the negative log10 of mol/L
H460 cells [4] = details: for IC50 in H460 cells: Table 1, value is the negative log10 of mol/L
Sw620 = test: Cell viability, Sw620 colon cancer cells; format: cell-based, human; details: Sw620, Colon
[5] = read-out: IC50 (−LogM), H226B, Lung, first H226B line (converted)
[6] = read-out: IC50 (−LogM), H226B, Lung, second H226B line (converted)
[7] = HCT-116, read-out: IC50 (−LogM), Hct116, Colon (converted)
[8] = read-out: IC50 (−LogM), HKE3, Colon, first HKE3 line (converted)
[9] = read-out: IC50 (−LogM), HKE3, Colon, second HKE3 line (converted)
[10] = ASPC1, read-out: IC50 (−LogM), ASPC1, Pancrease (converted)
[11] = DLD-1, read-out: IC50 (−LogM) (converted)
[12] = read-out: IC50 (−LogM), capanc1, Pancrease (converted)
[13] = NCI-H460, read-out: IC50 (−LogM), H460, Lung (converted)
[14] = NCI-H460, read-out: IC50 in H460 cells, Table 1

O=Cc1cn(Cc2cccc(C(F)(F)F)c2)c2ccccc12 [Oncrasin K62, 1-[3-(trifluoromethyl)benzyl]-1H-indole-3-carbaldehyde]
IC50 (H226B cells; [5]): 3.16 µM | IC50 (H226B cells; [6]): 10 µM | IC50 (A549 cells): 10 µM | IC50 (A549CK8): 7.94 µM | IC50 (Hct116; [7]): 12.6 µM | IC50 (CT116P53): < 31.6 µM | IC50 (HKE3; [8]): 3.16 µM | IC50 (HKE3; [9]): 5.01 µM | IC50 (H322 cells; NCI-H322, read-out: IC50 (−LogM) (converted)): 10 µM | IC50 (H1299 cells): 10 µM | IC50 (AsPC-1; [10]): 15.8 µM | IC50 (DLD1; [11]): < 31.6 µM | IC50 (Heb46): 10 µM | IC50 (Heb44): 0.1 µM | IC50 (Capanc-1; [12]): 31.6 µM | IC50 (miapac): < 31.6 µM | IC50 (T29Kt1 cells [1]): 5.62 µM | IC50 (H460 cells [2]; [13]): 0.0158 µM | IC50 (H460 cells [2]; [14]): 0.0138 µM

OCc1cn(Cc2cccc(C(F)(F)F)c2)c2ccccc12 [Oncrasin K63, {1-[3-(trifluoromethyl)benzyl]-1H-indol-3-yl}methanol]
IC50 (H226B cells; H226B, Lung, first H226B line, read-out: IC50 (−LogM) (converted)): 0.316 µM | IC50 (H226B cells; H226B, Lung, second H226B line, read-out: IC50 (−LogM) (converted)): 1.58 µM | IC50 (A549CK8; A549CK8, Lung): 10 µM | IC50 (Hct116; HCT-116, Hct116, Colon, read-out: IC50 (−LogM) (converted)): 7.94 µM | IC50 (CT116P53; CT116P53, Colon): < 31.6 µM | IC50 (HKE3; HKE3, Colon, first HKE3 line, read-out: IC50 (−LogM) (converted)): 1 µM | IC50 (HKE3; HKE3, Colon, second HKE3 line, read-out: IC50 (−LogM) (converted)): 1.58 µM | IC50 (H322 cells; NCI-H322, H322, Lung, read-out: IC50 (−LogM) (converted)): 31.6 µM | IC50 (AsPC-1; ASPC1, Pancrease, read-out: IC50 (−LogM) (converted)): 10 µM | IC50 (DLD1; DLD-1, DLD1, Colon, read-out: IC50 (−LogM) (converted)): < 31.6 µM | IC50 (Heb46): 10 µM | IC50 (Heb44): 0.251 µM | IC50 (Capanc-1; capanc1, Pancrease, read-out: IC50 (−LogM) (converted)): 31.6 µM | IC50 (miapac; miapac, Pancrease): < 31.6 µM | IC50 (T29Kt1 cells [1]): 0.562 µM | IC50 (H460 cells [2]; [13]): 0.0398 µM | IC50 (H460 cells [2]; [14]): 0.0398 µM

O=C1C(=Cc2ccccn2)c2ccccc2N1Cc1ccccc1 [Oncrasin K046, 2-Indolinone, 1-benzyl-3-(2-pyridylmethylene)-(8CI)]
IC50 in T29 cells (T29 cells): 5.3 | IC50 in T29k cells (T29Kt1 cells [3]): 5.3

O=Cc1cn(Cc2ccc(Cl)cc2Cl)c2ccccc12 [Oncrasin K050, 1-(2,4-dichlorobenzyl)-1H-indole-3-carbaldehyde]
IC50 in T29k cells (T29Kt1 cells [3]; listed as K50): 5 | IC50 in T29k cells (T29Kt1 cells [3]): 5.8 | IC50 in H460 cells (H460 cells [4]; listed as K50): 6.3 | IC50 in H460 cells (H460 cells [4]): 7

7H-Pyrrolo[2,3-d]pyrimidin-4-amine, N-[3-(1H-imidazol-1-yl)propyl]-5,6-diphenyl-7- [Oncrasin K017]
IC50 in T29 cells (T29 cells): 4.8 | IC50 in T29k cells (T29Kt1 cells [3]): 5

OCN1CC(Cc2ccc(C(F)(F)F)cc2)c2ccccc21 (centres unmarked) [Oncrasin K65]
IC50 (T29Kt1 cells [1]): 1.26 µM | IC50 (H460 cells [2]; [14]): 1.26 µM

O=Cc1cn(Cc2ccccc2)c2ccccc12 [Oncrasin K014, 1-Benzylindole-3-carboxaldehyde]
IC50 (H226B cells; [5]): 2 µM | IC50 (H226B cells; [6]): 31.6 µM | IC50 (A549 cells): 31.6 µM | IC50 (A549CK8): 6.31 µM | IC50 (Hct116; [7]): 7.94 µM | IC50 (CT116P53): < 31.6 µM | IC50 (HKE3; [8]): 1 µM | IC50 (HKE3; [9]): 5.01 µM | IC50 (AsPC-1; [10]): 7.94 µM | IC50 (DLD1; [11]): < 31.6 µM | IC50 (Heb46): 3.16 µM | IC50 (Heb44): 0.501 µM | IC50 (Capanc-1; [12]): 31.6 µM | IC50 (miapac): < 31.6 µM | IC50 (T29Kt1 cells [1]): 5.01 µM | IC50 (H460 cells [2]; [13]): 0.0251 µM | IC50 (H460 cells [2]; [14]): 0.0251 µM

CC(=O)c1cn(Cc2cccc(Cl)c2)c2ccccc12 [Oncrasin K058]
IC50 (T29Kt1 cells [1]): 31.6 µM

Cc1ccc(Cn2cc(CO)c3ccccc32)cc1 [Oncrasin K67, 1H-Indole-3-methanol, 1-[(4-methylphenyl)methyl]-(9CI)]
IC50 in T29 cells (T29 cells): 4.8 | IC50 in T29k cells (T29Kt1 cells [3]): 6.1 | IC50 in H460 cells (H460 cells [4]): 7

O=Cc1cn(Cc2ccccc2F)c2ccccc12 [Oncrasin K051, 1-(2-fluorobenzyl)-1H-indole-3-carbaldehyde]
IC50 (H226B cells; [5]): 0.794 µM | IC50 (H226B cells; [6]): 10 µM | IC50 (A549 cells): 12.6 µM | IC50 (A549CK8): 10 µM | IC50 (Hct116; [7]): 10 µM | IC50 (CT116P53): < 31.6 µM | IC50 (HKE3; [9]): 10 µM | IC50 (H1299 cells): 7.94 µM | IC50 (AsPC-1; [10]): 7.94 µM | IC50 (DLD1; [11]): < 31.6 µM | IC50 (Heb46): 10 µM | IC50 (Heb44): 0.316 µM | IC50 (Capanc-1; [12]): 31.6 µM | IC50 (miapac): < 31.6 µM | IC50 (T29Kt1 cells [1]): 0.316 µM | IC50 (H460 cells [2]; [13]): 0.1 µM | IC50 (H460 cells [2]; [14]): 0.1 µM

NC(=S)NN=Cc1cn(Cc2ccccc2)c2ccccc12 [Oncrasin K031, Hydrazinecarbothioamide, 2-[[1-(phenylmethyl)-1H-indol-3-yl]methylene]-(9CI)]
IC50 in T29k cells (T29Kt1 cells [3]): 5

CC(=O)Oc1cn(Cc2ccccc2)c2ccccc12 [Oncrasin K047, Indoxyl, 1-benzyl-, acetate (6CI)]
IC50 in H460 cells (H460 cells [4]): 5

O=Cc1cn(Cc2ccc(C(F)(F)F)cc2)c2ccccc12 [Oncrasin K64, 1H-Indole-3-carboxaldehyde, 1-[[4-(trifluoromethyl)phenyl]methyl]-(9CI)]
IC50 in H460 cells (H460 cells [4]): 5.8

4H-1,2,4-Triazol-4-amine, N-[[1-[(2,4-dichlorophenyl)methyl]-1H-indol-3-yl]methyle> [Oncrasin K002]
IC50 in H460 cells (H460 cells [4]): 4.8

OCc1cn(Cc2ccc(Cl)cc2Cl)c2ccccc12 [Oncrasin K74, 1H-Indole-3-methanol, 1-[(2,4-dichlorophenyl)methyl]-]
IC50 (T29Kt1 cells [1]): 1.58 µM | IC50 (H460 cells [2]; [14]): 0.0794 µM

O=S(=O)(Nc1nccs1)c1ccc(N=Cc2cn(Cc3ccccc3)c3ccccc23)cc1 [Oncrasin K042, Sulfanilamide, N4-[(1-benzylindol-3-yl)methylene]-N1-2-thiazolyl-(8CI)]
IC50 (−LogM) (H226B cells; H226B, Lung, first H226B line): 5.5 −LogM | IC50 (−LogM) (H226B cells; H226B, Lung, second H226B line): 5.3 −LogM | IC50 (−LogM) (A549 cells; A549, Lung): 5 −LogM | IC50 (−LogM) (A549CK8; A549CK8, Lung): 5.3 −LogM | IC50 (−LogM) (Hct116; Hct116, Colon): 5 −LogM | IC50 (−LogM) (CT116P53; CT116P53, Colon): >4.5 −LogM | IC50 (−LogM) (HKE3; HKE3, Colon, first HKE3 line): 6 −LogM | IC50 (−LogM) (HKE3; HKE3, Colon, second HKE3 line): 5 −LogM | IC50 (−LogM) (H322 cells; H322, Lung): >4.5 −LogM | IC50 (−LogM) (H1299 cells; h1299, Lung): >4.5 −LogM | IC50 (−LogM) (AsPC-1; ASPC1, Pancrease): 5 −LogM | IC50 (−LogM) (DLD1; DLD1, Colon): >4.5 −LogM | IC50 (−LogM) (Heb46): 5.4 −LogM | IC50 (−LogM) (Heb44): 6.7 −LogM | IC50 (−LogM) (Capanc-1; capanc1, Pancrease): 5.5 −LogM | IC50 (−LogM) (Sw620): >4.5 −LogM | IC50 (−LogM) (miapac; miapac, Pancrease): >4.5 −LogM | IC50 in T29k cells (T29Kt1 cells [3]): 6 | IC50 (−LogM) (H460 cells [4]; H460, Lung): 8 −LogM | IC50 in H460 cells (H460 cells [4]): 8

O=C(CCCCCCC(=O)N/N=C/c1cn(Cc2ccc(Cl)cc2)c2ccccc12)CCCCC1SCC2NC(=O)NC21 (centres unmarked) [Oncrasin K130]
IC50 (T29Kt1 cells [1]): 2.51 µM | IC50 (H460 cells [2]; [14]): 0.398 µM

OCc1cn(Cc2cccc(Cl)c2)c2ccccc12 [Oncrasin K72, 1H-Indole-3-methanol, 1-[(3-chlorophenyl)methyl]-(9CI)]
IC50 in T29k cells (T29Kt1 cells [3]): 5.75 | IC50 in H460 cells (H460 cells [4]): 5.9

O=Cc1cn(Cc2ccc([N+](=O)[O-])cc2)c2ccccc12 [Oncrasin K70, 1-(4-nitrobenzyl)-1H-indole-3-carbaldehyde]
IC50 (T29Kt1 cells [1]): 10 µM | IC50 (H460 cells [2]; [14]): 0.501 µM
